Patent US7317028B2, “Cell differentiation inducer” (Schering Aktiengesellschaft, priority 1996, dated 2008)
Where a name gives a salt, the structure may show the parent alone.

system: A2780 cells; experiment: Test for induction of differentiation in A2780 cells (ALP activity, ALPmin); assay type: cell-based, human; details: not given
Procedure: Increase of alkaline phosphatase (ALP) activity is known as an indicator for differentiation of human colon cancer cells. […] Thus, differentiation inducing action was evaluated using ALP activity as an indicator.
To each well of a 96-well plate was placed 0.1 mL of A2780 cells (15,000 cells/well) and the next day was added 0.1 mL of a sequential dilute of test solution with the medium. […] The reaction was quenched with 0.05 mL/well of 3N sodium hydroxide aq. For each well, an absorbance at 405 nm was measured to determine the minimum concentration of the drug inducing increase of ALP activity (ALPmin).

Structure (SMILES)	minimal effective concentration [µM]
CN(Cc1ccc(C(=O)Nc2ccccc2N)cc1)C(=O)COc1cccnc1 [Example 44, N-(2-aminophenyl)-4-[N-methyl-N-(pyridin-3-yl)oxyacetyl]aminomethylbenzamide]	0.01

same assay, conditions: A2780 cells, 3 days incubation; minimum concentration of the drug inducing increase of ALP activity

Structure (SMILES)	minimal effective concentration [µM]
COC(=O)c1ccc(C(=O)NCc2ccc(C(=O)Nc3ccccc3N)cc2)cc1 [Example 11, N-(2-aminophenyl)-4-[N-(4-methoxycarboxybenzoyl)aminomethyl]benzamide]	1
Cn1cccc1C(=O)NCc1ccc(C(=O)Nc2ccccc2N)cc1 [Example 24, N-(2-aminophenyl)-4-[N-(N′-methyl-1H-pyrrol-2-yl)carbonylaminomethyl]benzamide]	1
Cc1ncsc1CCOC(=O)NCc1ccc(C(=O)Nc2ccccc2N)cc1 [Example 64, N-(2-aminophenyl)-4-C[N-[2-(4-methylthiazol-5-yl)ethoxycarbonyl]aminomethyl]benzamide]	3

same assay, conditions: Homo sapiens, 72 h; A2780 cells, 3 days incubation; minimum concentration of the drug inducing increase of ALP activity

Structure (SMILES)	minimal effective concentration [µM]
Nc1cccc(NC(=O)c2ccc(CNC(=O)OCc3cccnc3)cc2)c1 [Comp. Ex. 1, N-(3-aminophenyl)-4-[N-(pyridin-3-yl)methoxycarbonylaminomethyl]benzamide, reference compound]	> 100
Nc1ccc(NC(=O)c2ccc(CNC(=O)OCc3cccnc3)cc2)cc1 [Comp. Ex. 2, N-(4-aminophenyl)-4-[N-(pyridin-3-yl)methoxycarbonylaminomethyl]benzamide, reference compound]	> 100
Cc1ccc(C(=O)NCc2ccc(C(=O)Nc3ccccc3N)cc2)cc1 [Example 4, N-(2-aminophenyl)-4-[N-(4-methylbenzoyl)aminomethyl]benzamide hydrochloride]	1
Nc1ccccc1NC(=O)c1ccc(CNC(=O)c2ccc(C(=O)O)cc2)cc1 [Example 10, N-(2-aminophenyl)-4-[N-(4-carboxybenzoyl)aminomethyl]benzamide hydrochloride]	3
Nc1ccccc1NC(=O)c1ccc(CNC(=O)c2c[nH]cn2)cc1 [Example 27, N-(2-aminophenyl)-4-[N-(imidazol-4-yl)carbonylaminomethyl]benzamide]	10
Nc1ccccc1NC(=O)c1ccc(CNC(=O)CNc2cccnc2)cc1 [Example 35, N-(2-aminophenyl)-4-[N-[N-(pyridin-3-yl)aminoacetyl]aminomethyl]benzamide]	0.3
Nc1nc(CC(=O)NCc2ccc(C(=O)Nc3ccccc3N)cc2)cs1 [Example 36, N-(2-aminophenyl)-4-[N-(2-aminothiazol-4-yl)acetylaminomethyl]benzamide]	10
O=C(CCc1cccnc1)NCc1ccc(C(=O)Nc2ccccc2O)cc1 [Example 40, N-(2-hydroxyphenyl)-4-[N-[3-(pyridin-3-yl)propionyl]aminomethyl]benzamide]	10
O=C(COc1cccnc1)NCc1ccc(C(=O)Nc2ccccc2O)cc1 [Example 41, N-(2-hydroxyphenyl)-4-[N-(pyridin-3-yl)oxyacetylaminomethyl]benzamide]	0.3
Nc1ccccc1NC(=O)c1ccc(CN(CCCc2cccnc2)C(=O)COc2cccnc2)cc1 [Example 43, N-(2-aminophenyl)-4-[N-(pyridin-3-yl)oxyacetyl-N-[3-(pyridin-3-yl)propyl]aminomethyl]benzamide]	3
Nc1ccccc1NC(=O)c1ccc(CNC(=O)OCc2ccccc2)cc1 [Example 49, N-(2-aminophenyl)-4-[N-(benzyloxycarbonyl)aminomethyl]benzamide]	1
Nc1ccccc1NC(=O)c1ccc(CNC(=O)OCc2cccnc2Cl)cc1 [Example 58, N-(2-aminophenyl)-4-[N-(2-chloropyridin-3-yl)methoxycarbonylaminomethyl]benzamide]	3
CN1CCN(COC(=O)NCc2ccc(C(=O)Nc3ccccc3N)cc2)CC1 [Example 66, N-(2-aminophenyl)-4-[N-(4-methylpiperazin-1-yl)methoxycarbonylaminomethyl]benzamide]	3
